Reference: patent US20220378756A1, “ACTIVATING PYRUVATE KINASE R” (FORMA Therapeutics, Inc., priority 2019, published 2022)
Entries after “also recorded” stand apart in the source; their conditions may differ.

Tests used:
[1] = test system: Berkeley SS mouse (human HgbS); test: Berkeley SS mouse model of SCD, 7 days in chow; assay type: in vivo; conditions: 1000 ppm in chow
Description: Targeted gene deletions and a human transgene in the Berkeley SS mouse model result in mice that express human HgbS almost exclusively (Pászty C. Transgenic and gene knock-out mouse models of sickle cell anemia and the thalassemias. Curr Opin Hematol. 1997 March; 4(2):88-93) and mimic the genetic, hematologic, and histopathologic features of SCD in humans. These include irreversibly sickled RBCs, anemia, and multi-organ pathology.
The effects of Compound 1 on Hgb affinity for oxygen, percentage of sickled cells, and/or Hgb were evaluated in the Berkley SS mouse. Two studies were conducted where mice received 0 or 1000 ppm Compound 1 ad libitum in mouse chow for 7 days. Blood was drawn on Day 7 and analyzed under hypoxic conditions. Red cell parameters were measured by ADVIA.

[2] = Phase 1 SAD/MAD, healthy volunteers: pharmacokinetics; assay type: in vivo, human
Description: (§1) This is a first-in-human (FIH), Phase 1 study of Compound 1 that will characterize the safety, PK, and PD of Compound 1 after a single dose and after repeated dosing first in healthy adult volunteers and then in adolescents or adults with sickle cell disease. Initially, a dose range of Compound 1 in single ascending dose (SAD) escalation cohorts will be explored in healthy subjects. Enrollment of healthy subjects into 2-week multiple ascending dose (MAD) escalation cohorts will be initiated once the safety and PK from at least two SAD cohorts is available to inform the doses for the 2-week MAD portion of the study. The MAD cohorts will then run in parallel to the single dose cohorts. A single dose cohort is planned to understand food effects (FE) on the PK of Compound 1. […] Multiple dose studies in SCD subjects will then be initiated upon completion of MAD studies in healthy volunteers. Compound 1 will be administered in 25 mg and 100 mg tablets delivered orally.
In this study, SAD/MAD cohorts are randomized (3 to 1) to receive Compound 1 or placebo (P). Compound 1 was evaluated first in 4 healthy SAD cohorts and 4 healthy MAD (14-day dosing period) cohorts. Based on the safety, and PK/PD profile from HS, Compound 1 is then evaluated in 1 SCD SAD cohort and 2 SCD MAD cohorts. Specifically, based on the safety and pharmacokinetic/pharmacodynamics (PK/PD) profile in healthy volunteer studies, Compound 1 is evaluated in patients (pts) with SCD, first in a single dose (SD or SAD) cohort and then in multiple-dose (MD or MAD) cohorts (14-day and 12-week). Safety assessments include AEs, vital signs, ECGs and laboratory parameters. PK/PD blood sampling was performed on Day 1 (SAD/MAD) and Day 14 (MAD) and up to 72 h after the last dose and at the end-of-study visit. […]
Four healthy SAD cohorts were evaluated at doses of 200, 400, 700, and 1000 mg, and four healthy MAD cohorts received 200 to 600 mg total daily doses for 14 days at QD or BID dosing (100 mg BID, 200 mg BID, 300 mg BID, and 400 mg QD). […]

[3] = test system: H295R adreno-cortical carcinoma cell line; test: Steroid modulation screen in vitro; assay type: cell-based; conditions: tested at 200 to 0.0002 μM; only at the top concentration
Description: (§2) To assess potential effects on steroidogenesis, Compound 1 was screened for steroid modulation in vitro using the H295R adreno-cortical carcinoma cell line (at 200 to 0.0002 μM) and in an assay to monitor cell viability (MTT Kit). Compound 1 indicated steroid modulation potential (% over vehicle) only at 200 µM, the top concentration tested, with 100% cellular viability at concentrations ≤20 μM (90% viability at 200 μM).

[4] = test system: estradiol and testosterone levels; test: Circulating estradiol and testosterone in healthy subjects, 14 days; assay type: in vivo, human; conditions: healthy subjects, 100, 200, 300 mg BID and 400 mg QD for 14 days; days 8, 14, 17
Description: Effects on circulating levels of estradiol and testosterone in male and female healthy subjects receiving Compound 1 or placebo for a treatment period of 14 days were evaluated. Compound 1 was administered twice daily (BID) at dose levels of 100 mg, 200 mg, and 300 mg, and once daily (QD) at a dose level of 400 mg. Each dosing cohort was comprised of 9 subjects treated with Compound 1 and 3 subjects treated with placebo. Testosterone and estradiol levels were assessed prior to dosing (baseline), and then on days 8, 14 and 17.

[5] = Phase 1, SCD patients single 700 mg dose: safety; assay type: in vivo, human
Description: (§3) In this study, SAD/MAD cohorts are randomized (3 to 1) to receive Compound 1 or placebo (P). Compound 1 was evaluated first in 4 healthy SAD cohorts and 4 healthy MAD (14-day dosing period) cohorts. Based on the safety, and PK/PD profile from HS, Compound 1 is then evaluated in 1 SCD SAD cohort and 2 SCD MAD cohorts. Specifically, based on the safety and pharmacokinetic/pharmacodynamics (PK/PD) profile in healthy volunteer studies, Compound 1 is evaluated in patients (pts) with SCD, first in a single dose (SD or SAD) cohort and then in multiple-dose (MD or MAD) cohorts (14-day and 12-week). Safety assessments include AEs, vital signs, ECGs and laboratory parameters. PK/PD blood sampling was performed on Day 1 (SAD/MAD) and Day 14 (MAD) and up to 72 h after the last dose and at the end-of-study visit. PD parameters included 2,3-DPG, ATP, and p50 in all cohorts with additional PD studies (including oxygen scan) performed only in the SCD cohorts. PD parameters included 2,3-DPG, ATP, p50, RBC deformability with controlled deoxygenation and reoxygenation (Lorrca® oxygen scan) and varying osmolality (Lorrca® osmoscan)). To maintain study blind, pt identifiers were removed when needed.
In the SD cohort, 7 pts (2 males, 5 females, all HbSS) received 700 mg Compound 1 (n=5) or placebo (n=2).
All SCD patients who received a single 700 mg dose of Compound 1 or placebo were monitored for adverse events for 7 days. The incidence of treatment emergent adverse events (TEAEs) in SCD patients receiving Compound 1 (700 mg) or placebo are reported in Table 23. Six TEAEs were reported in 4 patients; all TEAEs were grade 1 and transient. Specifically, six TEAEs were reported in 4 of 7 ([…]) patients, including 3 TEAEs (arthralgia, headache, palpitations) in 2 of 5 ([…]) pts receiving Compound 1 and 3 TEAEs (back pain, myalgia, pruritis) in 2 of 2 (100%) pts receiving placebo; all TEAEs were grade 1 and transient. […] One possibly related TEAE (palpitations) occurred about 8 hours post dose. No other symptoms were observed, and the palpitations resolved in <1 minute. […] The single 700 mg dose of Compound 1 was considered tolerable, and the first multiple dose SCD cohort (“Dose 1” in FIG. 28) was initiated.

[6] = Phase 1 SAD/MAD, healthy volunteers: safety; assay type: in vivo, human
Description: as §1, §3
Four healthy SAD cohorts were evaluated at doses of 200, 400, 700, and 1000 mg, and four healthy MAD cohorts received 200 to 600 mg total daily doses for 14 days at QD or BID dosing (100 mg BID, 200 mg BID, 300 mg BID, and 400 mg QD). In the food effect (FE) cohort, 10 healthy subjects received 200 mg of Compound 1 QD with and without food.

[7] = test system: H295R adreno-cortical carcinoma cell line; test: Cell viability (MTT Kit); assay type: cell-based
Description: as §2

O=C([C@H](CO)c1ccccc1)N1CC2=C(C1)CN(S(=O)(=O)c1cnc3c(c1)OCCO3)C2 (single isomer, unassigned) [Compound 1]
Hgb increase [1]: ≈ 1 g/dL
exposure under fed/fasted conditions ([2]; food effect cohort, 200 mg): similar
observed clearance on day 1 and day 14 ([2]; healthy subjects, 14 days of dosing): unchanged
time of pharmacokinetic maximum ([2]; healthy volunteers, single dose 400 mg, FIG. 43): 1 to 2 h
concentration at which steroid modulation potential (% over vehicle) was indicated [3]: 200 µM
change from baseline for testosterone and estradiol levels [4]: No effect on testosterone or estradiol levels; also recorded: no statistically significant changes
serious adverse events / TEAEs leading to withdrawal ([5]; SCD single dose cohort): No serious adverse events (SAEs) or TEAEs leading to pt withdrawal
Any TEAE, n (%) ([5]; SCD, 700 mg single dose, N = 5): 2 (40) n (%)
TEAE related to study drug, n (%) ([5]; SCD, 700 mg single dose, N = 5): 1 (20) n (%)
pts with TEAEs (2 of 5) ([5]; SCD, 700 mg single dose, 3 TEAEs (arthralgia, headache, palpitations), grade 1): 40%
Grade 1 headache, incidence ([6]; HS receiving 14 days of dosing): 28%
Grade 1 headache, incidence ([6]; HS receiving a single dose): 4%
related TEAE of grade 2 or less: headache ([6]; MAD cohorts): 4 n
related TEAE of grade 2 or less: palpitations ([6]; MAD cohorts): 1 n
related TEAE of grade 2 or less: somnolence ([6]; MAD cohorts): 1 n
Any TEAE, n (%) ([6]; MAD, N = 36): 15 (42) n (%)
Any grade 3 or greater TEAE, n (%) ([6]; MAD, N = 36): 0 n (%)
Drug interruption, reduction, or discontinuation due to TEAE, n (%) ([6]; MAD, N = 36): 0 n (%)
serious adverse events / AEs leading to withdrawal ([6]; SAD and MAD cohorts of healthy volunteers): No serious adverse events (SAEs) or AEs leading to withdrawal
related TEAE of grade 2 or less: headache ([6]; SAD cohorts): 1 n
related TEAE of grade 2 or less: transient ventricular tachycardia ([6]; SAD cohorts): 1 n
Any TEAE, n (%) ([6]; SAD, N = 24): 5 (21) n (%)
Any grade 3 or greater TEAE, n (%) ([6]; SAD, N = 24): 1 (4) n (%)
Drug interruption, reduction, or discontinuation due to TEAE, n (%) ([6]; SAD, N = 24): 0 n (%)
cellular viability ([7]; 200 μM): 90%
cellular viability ([7]; concentrations ≤20 μM): 100%
